Laboratory results reported in ChEMBL document CHEMBL1201862, “PubChem BioAssay data set” (2004).
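96-well plates; 48 h exposure; 5 concentrations. Endpoints by linear interpolation between flanking doses. Not reached: highest tested concentration assigned. Abbreviation: GI50, concentration required for 50% inhibition of growth.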 The source made the active and inactive calls. No stated cut-off is given here; in the data, active = GI50 up to about 1.1 µM and inactive = higher.

Legend:
Experiment in all cases: DTP human tumour cell line panel, 48 h
HOP-92 = tested on: HOP-92
SR = tested on: SR
COLO 205 = tested on: COLO 205
RXF 393 = tested on: RXF 393
K562 = tested on: K562
SF-539 = tested on: SF-539
SN12C = tested on: SN12C
UO-31 = tested on: UO-31
HOP-62 = tested on: HOP-62
CAKI-1 = tested on: CAKI-1
SK-OV-3 = tested on: SK-OV-3
SNB-75 = tested on: SNB-75
786-0 = tested on: 786-0
A549 = tested on: A549
UACC-62 = tested on: UACC-62
SW-620 = tested on: SW-620
MDA-N = tested on: MDA-N
SK-MEL-2 = tested on: SK-MEL-2

Measured: GI50

O=C1C=C(O)c2nc(O)ccc2C1=O
inactive: HOP-92 > 100 µM | SR > 100 µM | COLO 205 > 100 µM | RXF 393 > 100 µM | K562 > 100 µM | SF-539 > 100 µM | SN12C > 100 µM | UO-31 > 100 µM | HOP-62 > 100 µM | CAKI-1 > 100 µM | SK-OV-3 > 100 µM | SNB-75 > 100 µM | 786-0 > 100 µM | A549 > 100 µM | UACC-62 > 100 µM | SW-620 > 100 µM

C/C(CC1SCCCS1)=C(/C)CC1SCCCS1
inactive: MDA-N > 100 µM | SR > 100 µM | COLO 205 > 100 µM | RXF 393 > 100 µM | SK-MEL-2 > 100 µM | K562 > 100 µM | SF-539 > 100 µM | SN12C > 100 µM | UO-31 > 100 µM | HOP-62 > 100 µM | CAKI-1 > 100 µM | SNB-75 > 100 µM | 786-0 > 100 µM | A549 > 100 µM | UACC-62 > 100 µM | SW-620 > 100 µM

CC(=O)OCc1cccc(O)c1C(=O)CCC=C(C)C
inactive: HOP-92 > 100 µM | MDA-N > 100 µM | SR > 100 µM | COLO 205 > 100 µM | RXF 393 > 100 µM | SK-MEL-2 > 100 µM | K562 > 100 µM | SF-539 > 100 µM | SN12C > 100 µM | UO-31 > 100 µM | HOP-62 > 100 µM | CAKI-1 > 100 µM | SK-OV-3 > 100 µM | 786-0 > 100 µM | A549 > 100 µM | UACC-62 > 100 µM | SW-620 > 100 µM

CC(=O)C1=C(C)NC2C=CC=CN12 (configuration not stated)
inactive: HOP-92 > 100 µM | SR > 100 µM | COLO 205 > 100 µM | RXF 393 > 100 µM | SK-MEL-2 > 100 µM | K562 > 100 µM | SF-539 > 100 µM | SN12C > 100 µM | UO-31 > 100 µM | HOP-62 > 100 µM | CAKI-1 > 100 µM | SK-OV-3 > 100 µM | SNB-75 > 100 µM | 786-0 > 100 µM | A549 > 100 µM | UACC-62 > 100 µM | SW-620 > 100 µM

Cc1[nH]c(=O)[nH]c(=S)c1C(=O)NC(C)(CO)CO
inactive: HOP-92 > 100 µM | MDA-N > 100 µM | COLO 205 > 100 µM | RXF 393 > 100 µM | SK-MEL-2 > 100 µM | K562 > 100 µM | SF-539 > 100 µM | SN12C > 100 µM | UO-31 > 100 µM | HOP-62 > 100 µM | CAKI-1 > 100 µM | SK-OV-3 > 100 µM | SNB-75 > 100 µM | 786-0 > 100 µM | A549 > 100 µM | UACC-62 > 100 µM | SW-620 > 100 µM

Nc1nc(Cl)cc(OCC2(CO)CC=CC2)n1
inactive: HOP-92 > 100 µM | MDA-N > 100 µM | SR > 100 µM | RXF 393 > 100 µM | K562 95.7 µM | SF-539 > 100 µM | SN12C > 100 µM | HOP-62 > 100 µM | SNB-75 27.1 µM | 786-0 > 100 µM | A549 > 100 µM | SW-620 > 100 µM

COc1cc(C2c3cc4c(cc3[C@@H](Nc3ccc(F)cc3)C3CO[C@@H](O)[C@H]23)OCO4)cc(OC)c1O (some centres not stated)
active: SF-539 1.03 µM | A549 0.853 µM
inactive: MDA-N 22.2 µM | COLO 205 5.78 µM | K562 4.37 µM | SN12C 5.12 µM | UO-31 1.24 µM | HOP-62 5.07 µM | SK-OV-3 8.65 µM | SNB-75 4.83 µM | 786-0 4.61 µM | SW-620 8.38 µM
